Experimental data taken from PubChem BioAssay (NCI).
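Each compound was tested at five concentrations against cells in 96-well plates for 48 hours. TGI denotes the concentration required for complete inhibition of growth.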

Experiments:
Assay in all cases: NCI anticancer screen, dose series, 48 h
NCI-H522 lung = system: NCI-H522 lung
DU-145 prostate = system: DU-145 prostate
OVCAR-5 ovarian = system: OVCAR-5 ovarian
SK-OV-3 ovarian = system: SK-OV-3 ovarian
CCRF-CEM leukemia = system: CCRF-CEM leukemia
TK-10 renal = system: TK-10 renal
HS 578T breast = system: HS 578T breast
MOLT-4 leukemia = system: MOLT-4 leukemia
OVCAR-3 ovarian = system: OVCAR-3 ovarian
NCI-H226 lung = system: NCI-H226 lung
IGROV1 ovarian = system: IGROV1 ovarian
SK-MEL-5 melanoma = system: SK-MEL-5 melanoma
RPMI-8226 leukemia = system: RPMI-8226 leukemia
SF-295 CNS = system: SF-295 CNS
SF-268 CNS = system: SF-268 CNS
SNB-75 CNS = system: SNB-75 CNS
MCF7 breast = system: MCF7 breast

Compound | TGI (NCI-H522 lung) [µM] | TGI (DU-145 prostate) [µM] | TGI (OVCAR-5 ovarian) [µM] | TGI (SK-OV-3 ovarian) [µM] | TGI (CCRF-CEM leukemia) [µM] | TGI (TK-10 renal) [µM] | TGI (HS 578T breast) [µM] | TGI (MOLT-4 leukemia) [µM] | TGI (OVCAR-3 ovarian) [µM] | TGI (NCI-H226 lung) [µM] | TGI (IGROV1 ovarian) [µM] | TGI (SK-MEL-5 melanoma) [µM] | TGI (RPMI-8226 leukemia) [µM] | TGI (SF-295 CNS) [µM] | TGI (SF-268 CNS) [µM] | TGI (SNB-75 CNS) [µM] | TGI (MCF7 breast) [µM]
CC1=NN(c2nc(N)nc(C(C)Sc3cc(Cl)c(C)cc3S(N)(=O)=O)n2)C(C)(C)C1 (stereo not given) | > 10 | > 10 | > 10 | > 10 | > 10 | > 10 | > 10 | > 10 | > 10 | > 10 | > 10 | > 10 | > 10 | > 10 | > 10 | > 10 | > 10
OC(c1ccsc1)c1cc2ccccc2s1 (stereo not given) | > 10 | > 10 | > 10 | > 10 | > 10 | > 10 | > 10 | > 10 | > 10 | > 10 | > 10 | > 10 | > 10 | > 10 | > 10 | > 10 | > 10
CC/C(Cl)=N\OC(=O)Nc1ccccc1OC(F)(F)F | 2.9 | 33.9 | 36.9 | 37.3 | 3.42 | 23.8 | > 68.2 | 4.77 | 22.2 | 38.1 | 30.8 | 22.1 | 4.12 | 33.5 | > 57.8 | 48.2 | > 51.3
CC1=NN(C(=O)CC(=O)Nc2ccccc2C)C(=O)C1N=Nc1ccc(S(=O)(=O)c2ccc(N=NC3C(=O)N(C(=O)CC(=O)Nc4ccccc4C)N=C3C)cc2)cc1 (stereo not given) | > 100 | > 100 | > 100 | > 100 | > 100 | > 100 | > 100 | > 100 | > 100 | > 100 | > 100 | > 100 | > 100 | > 100 | > 100 | > 100 | > 100
CCOC(=O)C1=C(OS(=O)(=O)C(F)(F)F)CCCC1 | > 100 | > 100 | > 100 | > 100 | > 100 | > 100 | > 100 | > 100 | > 100 | > 100 | > 100 | > 100 | > 100 | > 100 | > 100 | > 100 | > 100
CC(=O)c1c2c(cc3c1CC1(Cc4cc5c(cc4C1=O)CCC5)C3)CCC2 (stereo not given) | > 100 | > 100 | > 100 | > 100 | > 73.7 | > 100 | > 100 | > 100 | > 100 | > 100 | > 100 | > 69.4 | > 92.9 | > 100 | > 100 | > 100 | > 100
Cc1cc(=O)oc2c(CNC(C)C(=O)O)c(O)ccc12 (stereo not given) | > 100 | > 100 | > 100 | > 100 | > 100 | > 100 | > 100 | > 100 | > 100 | > 100 | > 100 | > 100 | > 100 | > 100 | > 100 | > 100 | > 100
Cc1c(C)c(S(=O)(=O)N(CCCCCN)OCCCN)c(C)c2c1OC(C)(C)CC2 | 13.3 | > 70.5 | > 55.2 | 32 | > 23.5 | 37.8 | 28.4 | 48.5 | 19.9 | 32.7 | 11 | > 50.4 | 18 | 45.8 | 28.5 | 25.7 | > 100
C[C@H](CCC(=O)O[C@@H]1CC[C@@]2(C)C(CC[C@H]3[C@@H]4CC[C@H]([C@H](C)CCc5nc6ccccc6[nH]5)[C@@]4(C)CC[C@@H]32)C1)[C@H]1CC[C@H]2[C@@H]3CCC4C[C@H](O)CC[C@]4(C)[C@H]3CC[C@]12C (stereo not given in full) | > 100 | > 100 | > 100 | > 100 | > 100 | > 100 | > 100 | > 100 | > 100 | > 100 | > 100 | > 100 | > 100 | > 100 | > 100 | > 100 | > 100
COc1ccc(-c2nc(N)c(C#N)c3c2CCSc2ccc(C)cc2-3)cc1OC | > 100 | > 67.2 | > 100 | > 95.1 | 23.6 | > 100 | 52.9 | 25.1 | > 100 | > 70.9 | > 91.2 | 25.2 | 7.09 | > 100 | 93.9 | 71.3 | 63.5
